Measurements as given in patent US20080242870A1 (priority 2006, published 2008).
Like-named read-outs stand apart in the source and are kept apart here.

What was measured:
[1] = Fluorescence lifetime by TCSPC (Example 5); assay type: physicochemical; conditions: room temperature, CH2Cl2
Description: (§1) Luminescence lifetimes were measured with an IBH time-correlated single photon counting (TCSPC) system equipped with an IBH Model TBX-04 Photon Detection Module. The excitation source for the TCSPC measurements was a pulsed LED (IBH NanoLED, 455 nm, 1.3 ns pulse duration or 403 nm, <200 ps pulse duration) with a repetition rate of 1 MHz. All data was analyzed by iterative reconvolution of the decay profile (10,000 counts at the peak channel) with the instrument response function using software provided by the instrument manufacturer.

[2] = Absorption spectrum of perylene diimide (Example 5); assay type: physicochemical; conditions: CH2Cl2
[3] = Emission spectrum and quantum yield of perylene diimide (Example 5); assay type: physicochemical
Solubility = conditions: polar organic solvents
[4] = cited from earlier work
[5] = Sodium sensing: quantum yield vs sodium perchlorate concentration; conditions: in acetonitrile
Description: The benzo 15-crown-5 anthracene diimide derivative was synthesized because crown ethers are known for their ability to bind with metals. […] The extinction coefficient, ∈, was determined to be 16,000 M^−1 cm^−1 and the quantum yield, Φ, 0.02 (both were measured in acetonitrile). The emission spectrum for this compound was more complicated than the others. An excimer effect was evident in higher concentration samples and was more prominent in non-polar solvents. The excimer complicated the lifetime in toluene with a short component for the excited dimer state.

[6] = not given; remark: listed apart in the source
[7] = depending on the solvent
Description: as §1

[8] = Fluorescence quenching by 2,4-dinitrotoluene (Stern-Volmer); conditions: concentrated and dilute solutions in toluene

CCCCCCCCn1c(=O)c2c(-c3ccccc3)c3cccc4c3c(c3cccc5c(-c6ccccc6)c6c(=O)n(CCCCCCCC)c(=O)c6c4c53)c2c1=O [Compound 59, N,N′-Bis(octyl)-3,9-bis(phenyl)-perylene-1,2,7,8-tetracarboxyl diimide]
single exponential lifetime [1]: 5.01 ns
extinction coefficient ([2]; at absorption λmax): 29,000 M^−1 cm^−1
absorption λmax ([2]; room temperature): ~491 nm
quantum yield ([3]; measured against fluorescein): 0.67
Stokes' shift ([3]; room temperature, CH2Cl2): 26 nm
fluorescence λmax ([3]; room temperature, CH2Cl2, 425 nm excit.): 517 nm
solubility (Solubility): soluble in polar organic solvents

F[P-](F)(F)(F)(F)F.F[P-](F)(F)(F)(F)F.[Ru+2].c1ccc(-c2ccccn2)nc1.c1ccc(-c2ccccn2)nc1.c1ccc(-c2ccccn2)nc1 [[Ru(bpy)3](PF6)2]
Φr of standard ([4]; in CH3CN): 0.062

c1ccc2cc3ccccc3cc2c1 [anthracene]
Φr of standard ([4]; in EtOH): 0.27

N,N′-Bis(benzo 15-crown-5)-1,5-bis(phenyl)anthracene-2,3,6,7-tetracarboxyl diimide
sodium sensing [5]: effective sensor of sodium perchlorate
extinction coefficient, ∈ (in acetonitrile): 16,000 M^−1 cm^−1
quantum yield, Φ ([6]; in acetonitrile): 0.02

N,N′-Bis(p-(tert-butyl)phenyl)-1,5-bis(phenyl)anthracene-2,3,6,7-tetracarboxyl diimide
lifetime (single exponential) [7]: around 5.5 ns
extinction coefficient, ∈ (in toluene): 8,500 M^−1 cm^−1
quantum yield, Φ ([6]; in toluene): 0.29

N,N′-Bis(p-triphenyl amine)-1,5-bis(phenyl)anthracene-2,3,6,7-tetracarboxyl diimide
2,4-dinitrotoluene sensing (quenching) [8]: effective 2,4-dinitrotoluene (DNT) sensor
extinction coefficient, ∈ (in toluene): 22,000 M^−1 cm^−1
quantum yield, Φ ([6]; in toluene): 0.09
